Measurements: ChEMBL document CHEMBL5465560, “Selectivity Literature for EUbOPEN Chemogenomic Library” (2024)
Values belong to the compound of their own block, whether it stands above or below them.

Columns and labels:
[1] = molecular target: Calcium/calmodulin-dependent protein kinase kinase 2 (Homo sapiens) (UniProt Q96RR4); assay: Selectivity interaction (Kinase panel (DSF assay)) EUB0001559a CAMKK2
[2] = molecular target: Serine/threonine-protein kinase 16 (Homo sapiens, UniProt O75716); assay: Selectivity interaction (KinomeScan (DiscoverX)) EUB0000655a STK16; details: at 10 µM
Serine/threonine-protein kinase 16, sequence (O75716 whole entry): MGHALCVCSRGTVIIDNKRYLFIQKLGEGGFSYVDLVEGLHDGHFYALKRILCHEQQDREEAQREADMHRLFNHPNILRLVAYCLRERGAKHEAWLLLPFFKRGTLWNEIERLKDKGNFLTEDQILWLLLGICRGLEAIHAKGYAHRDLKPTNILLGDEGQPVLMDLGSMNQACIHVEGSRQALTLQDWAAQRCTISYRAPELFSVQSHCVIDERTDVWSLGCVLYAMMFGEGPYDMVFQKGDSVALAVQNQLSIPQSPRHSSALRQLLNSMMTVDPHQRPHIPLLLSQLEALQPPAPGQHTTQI

[3] = molecular target: T1, Dual specificity mitogen-activated protein kinase kinase 6 (Homo sapiens) (UniProt P52564); assay: Selectivity interaction (KinomeScan (DiscoverX)) EUB0000655a MAP2K6; details: at 10 µM
T1 sequence (whole entry): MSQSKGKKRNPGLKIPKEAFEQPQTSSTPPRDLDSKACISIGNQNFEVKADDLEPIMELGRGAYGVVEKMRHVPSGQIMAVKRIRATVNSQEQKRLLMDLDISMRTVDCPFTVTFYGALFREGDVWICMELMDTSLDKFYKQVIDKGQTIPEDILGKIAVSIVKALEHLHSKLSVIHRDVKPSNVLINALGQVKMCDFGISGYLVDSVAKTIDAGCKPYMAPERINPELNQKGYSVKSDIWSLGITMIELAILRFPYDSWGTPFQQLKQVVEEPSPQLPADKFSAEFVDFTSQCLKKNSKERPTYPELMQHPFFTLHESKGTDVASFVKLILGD

[4] = molecular target: Epithelial discoidin domain-containing receptor 1 (Homo sapiens) (UniProt Q08345); assay: Selectivity interaction (KinomeScan (DiscoverX)) EUB0000618a DDR1; details: at 10 µM
Epithelial discoidin domain-containing receptor 1 (Homo sapiens), sequence (Q08345 whole entry, the tested form may be a part): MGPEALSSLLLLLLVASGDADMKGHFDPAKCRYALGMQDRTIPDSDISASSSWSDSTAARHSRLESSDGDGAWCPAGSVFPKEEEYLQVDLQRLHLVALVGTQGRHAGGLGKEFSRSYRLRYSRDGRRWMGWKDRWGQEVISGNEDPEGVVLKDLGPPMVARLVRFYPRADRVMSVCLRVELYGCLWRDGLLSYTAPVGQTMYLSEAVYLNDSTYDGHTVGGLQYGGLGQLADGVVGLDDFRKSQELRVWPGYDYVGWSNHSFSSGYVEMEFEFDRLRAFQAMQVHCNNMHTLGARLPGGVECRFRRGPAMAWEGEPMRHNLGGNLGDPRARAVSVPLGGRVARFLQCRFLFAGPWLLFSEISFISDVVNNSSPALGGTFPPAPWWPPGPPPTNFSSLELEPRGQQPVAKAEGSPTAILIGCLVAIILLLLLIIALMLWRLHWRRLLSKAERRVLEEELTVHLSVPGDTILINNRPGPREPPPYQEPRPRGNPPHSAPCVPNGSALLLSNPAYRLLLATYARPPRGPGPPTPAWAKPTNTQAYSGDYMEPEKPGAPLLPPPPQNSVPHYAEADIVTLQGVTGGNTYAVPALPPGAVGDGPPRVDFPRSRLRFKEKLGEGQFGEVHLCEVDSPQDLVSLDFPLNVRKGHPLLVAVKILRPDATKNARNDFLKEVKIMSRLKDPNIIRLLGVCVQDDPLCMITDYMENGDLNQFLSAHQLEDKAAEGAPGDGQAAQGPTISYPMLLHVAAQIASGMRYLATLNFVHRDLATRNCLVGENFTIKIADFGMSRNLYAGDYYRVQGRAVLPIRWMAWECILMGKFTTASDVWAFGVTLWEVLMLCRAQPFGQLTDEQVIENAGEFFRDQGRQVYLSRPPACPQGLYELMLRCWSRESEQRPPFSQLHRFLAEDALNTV

[5] = molecular target: T2, Serine/threonine-protein kinase TAO2 (Homo sapiens) (UniProt Q9UL54); assay: Selectivity interaction (KinomeScan (DiscoverX)) EUB0000618a TAOK2; details: at 10 µM
T2 sequence (whole entry): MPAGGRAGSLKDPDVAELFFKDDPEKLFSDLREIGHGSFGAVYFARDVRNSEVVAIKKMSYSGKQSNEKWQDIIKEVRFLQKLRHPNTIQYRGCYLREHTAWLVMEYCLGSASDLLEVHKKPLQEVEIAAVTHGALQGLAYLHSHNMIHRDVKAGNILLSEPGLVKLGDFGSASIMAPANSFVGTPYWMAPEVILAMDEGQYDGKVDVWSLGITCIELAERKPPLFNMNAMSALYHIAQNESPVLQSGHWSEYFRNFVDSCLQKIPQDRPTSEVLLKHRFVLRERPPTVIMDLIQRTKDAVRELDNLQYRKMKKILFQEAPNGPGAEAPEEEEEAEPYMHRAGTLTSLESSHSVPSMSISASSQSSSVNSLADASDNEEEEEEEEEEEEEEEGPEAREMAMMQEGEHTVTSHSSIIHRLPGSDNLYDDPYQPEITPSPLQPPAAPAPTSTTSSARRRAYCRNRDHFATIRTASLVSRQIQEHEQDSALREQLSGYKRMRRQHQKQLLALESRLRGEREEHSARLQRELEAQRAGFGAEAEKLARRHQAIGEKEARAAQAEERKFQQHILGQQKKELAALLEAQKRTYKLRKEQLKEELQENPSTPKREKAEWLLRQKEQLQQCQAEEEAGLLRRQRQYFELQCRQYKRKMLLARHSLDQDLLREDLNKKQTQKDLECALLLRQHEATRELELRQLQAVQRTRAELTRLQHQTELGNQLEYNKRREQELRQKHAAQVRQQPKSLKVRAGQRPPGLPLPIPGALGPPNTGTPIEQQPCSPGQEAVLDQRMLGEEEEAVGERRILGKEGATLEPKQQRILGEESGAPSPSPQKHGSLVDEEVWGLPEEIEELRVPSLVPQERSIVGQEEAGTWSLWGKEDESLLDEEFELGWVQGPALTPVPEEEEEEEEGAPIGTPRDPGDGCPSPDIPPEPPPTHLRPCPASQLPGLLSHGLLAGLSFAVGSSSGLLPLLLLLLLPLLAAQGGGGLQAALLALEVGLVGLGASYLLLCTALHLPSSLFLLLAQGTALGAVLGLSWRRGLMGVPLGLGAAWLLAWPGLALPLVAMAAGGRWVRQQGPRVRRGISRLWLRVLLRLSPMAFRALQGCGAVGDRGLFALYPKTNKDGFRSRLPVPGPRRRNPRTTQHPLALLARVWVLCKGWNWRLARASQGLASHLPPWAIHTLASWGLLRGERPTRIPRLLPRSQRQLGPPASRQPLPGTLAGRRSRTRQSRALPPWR

[6] = molecular target: T3, Serine/threonine-protein kinase PLK4 (Homo sapiens) (UniProt O00444); assay: Selectivity interaction (KinomeScan (DiscoverX)) EUB0001619a PLK4; details: at 1 µM
T3 sequence (whole entry): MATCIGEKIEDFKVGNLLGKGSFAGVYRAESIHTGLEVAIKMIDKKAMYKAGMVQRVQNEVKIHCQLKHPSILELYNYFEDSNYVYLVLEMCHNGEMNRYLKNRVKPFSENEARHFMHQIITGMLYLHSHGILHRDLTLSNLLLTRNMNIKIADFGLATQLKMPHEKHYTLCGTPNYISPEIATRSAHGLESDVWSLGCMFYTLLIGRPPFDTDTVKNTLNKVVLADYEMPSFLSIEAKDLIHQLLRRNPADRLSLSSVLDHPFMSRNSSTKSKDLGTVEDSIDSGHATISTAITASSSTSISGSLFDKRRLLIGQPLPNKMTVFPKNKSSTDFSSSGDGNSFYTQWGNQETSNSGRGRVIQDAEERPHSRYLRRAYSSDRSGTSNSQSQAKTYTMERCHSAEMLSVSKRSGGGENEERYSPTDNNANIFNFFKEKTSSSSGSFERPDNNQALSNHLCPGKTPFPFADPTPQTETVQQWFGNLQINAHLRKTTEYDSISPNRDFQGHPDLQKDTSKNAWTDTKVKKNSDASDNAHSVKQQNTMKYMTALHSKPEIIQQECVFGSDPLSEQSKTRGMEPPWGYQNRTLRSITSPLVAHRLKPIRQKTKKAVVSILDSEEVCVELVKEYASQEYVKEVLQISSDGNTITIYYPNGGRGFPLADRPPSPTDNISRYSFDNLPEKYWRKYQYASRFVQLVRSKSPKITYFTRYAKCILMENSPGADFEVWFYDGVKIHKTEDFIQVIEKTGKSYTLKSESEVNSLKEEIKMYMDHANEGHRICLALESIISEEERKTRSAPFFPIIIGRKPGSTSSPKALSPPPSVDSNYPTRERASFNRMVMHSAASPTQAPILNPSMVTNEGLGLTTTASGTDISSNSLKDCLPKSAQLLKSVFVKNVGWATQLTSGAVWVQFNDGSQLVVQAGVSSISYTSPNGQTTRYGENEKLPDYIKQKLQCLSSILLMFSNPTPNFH

[7] = molecular target: Tyrosine-protein kinase FRK (Homo sapiens) (UniProt P42685); assay: Selectivity interaction (Upstate Kinase Profiler service (Millipore)) EUB0000056c FRK; details: at 1 µM
Tyrosine-protein kinase FRK (Homo sapiens), sequence (P42685 whole entry): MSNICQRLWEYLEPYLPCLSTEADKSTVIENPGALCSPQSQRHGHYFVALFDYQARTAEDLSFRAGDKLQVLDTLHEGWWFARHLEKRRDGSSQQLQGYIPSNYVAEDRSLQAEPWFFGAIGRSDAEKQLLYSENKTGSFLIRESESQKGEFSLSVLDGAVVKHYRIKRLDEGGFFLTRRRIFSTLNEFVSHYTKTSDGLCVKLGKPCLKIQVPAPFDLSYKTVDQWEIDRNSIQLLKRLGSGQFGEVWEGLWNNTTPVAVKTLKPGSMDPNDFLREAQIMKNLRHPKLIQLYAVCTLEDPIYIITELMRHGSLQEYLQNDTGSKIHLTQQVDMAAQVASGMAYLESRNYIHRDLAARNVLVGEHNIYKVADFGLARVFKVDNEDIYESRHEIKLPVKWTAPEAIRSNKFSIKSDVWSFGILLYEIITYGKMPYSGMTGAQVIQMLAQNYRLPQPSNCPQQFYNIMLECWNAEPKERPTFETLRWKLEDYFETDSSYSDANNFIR

[8] = molecular target: Transient receptor potential cation channel subfamily M member 6 (Homo sapiens) (UniProt Q9BX84); details: at 10 µM
Transient receptor potential cation channel subfamily M member 6 (Homo sapiens), sequence (Q9BX84 whole entry): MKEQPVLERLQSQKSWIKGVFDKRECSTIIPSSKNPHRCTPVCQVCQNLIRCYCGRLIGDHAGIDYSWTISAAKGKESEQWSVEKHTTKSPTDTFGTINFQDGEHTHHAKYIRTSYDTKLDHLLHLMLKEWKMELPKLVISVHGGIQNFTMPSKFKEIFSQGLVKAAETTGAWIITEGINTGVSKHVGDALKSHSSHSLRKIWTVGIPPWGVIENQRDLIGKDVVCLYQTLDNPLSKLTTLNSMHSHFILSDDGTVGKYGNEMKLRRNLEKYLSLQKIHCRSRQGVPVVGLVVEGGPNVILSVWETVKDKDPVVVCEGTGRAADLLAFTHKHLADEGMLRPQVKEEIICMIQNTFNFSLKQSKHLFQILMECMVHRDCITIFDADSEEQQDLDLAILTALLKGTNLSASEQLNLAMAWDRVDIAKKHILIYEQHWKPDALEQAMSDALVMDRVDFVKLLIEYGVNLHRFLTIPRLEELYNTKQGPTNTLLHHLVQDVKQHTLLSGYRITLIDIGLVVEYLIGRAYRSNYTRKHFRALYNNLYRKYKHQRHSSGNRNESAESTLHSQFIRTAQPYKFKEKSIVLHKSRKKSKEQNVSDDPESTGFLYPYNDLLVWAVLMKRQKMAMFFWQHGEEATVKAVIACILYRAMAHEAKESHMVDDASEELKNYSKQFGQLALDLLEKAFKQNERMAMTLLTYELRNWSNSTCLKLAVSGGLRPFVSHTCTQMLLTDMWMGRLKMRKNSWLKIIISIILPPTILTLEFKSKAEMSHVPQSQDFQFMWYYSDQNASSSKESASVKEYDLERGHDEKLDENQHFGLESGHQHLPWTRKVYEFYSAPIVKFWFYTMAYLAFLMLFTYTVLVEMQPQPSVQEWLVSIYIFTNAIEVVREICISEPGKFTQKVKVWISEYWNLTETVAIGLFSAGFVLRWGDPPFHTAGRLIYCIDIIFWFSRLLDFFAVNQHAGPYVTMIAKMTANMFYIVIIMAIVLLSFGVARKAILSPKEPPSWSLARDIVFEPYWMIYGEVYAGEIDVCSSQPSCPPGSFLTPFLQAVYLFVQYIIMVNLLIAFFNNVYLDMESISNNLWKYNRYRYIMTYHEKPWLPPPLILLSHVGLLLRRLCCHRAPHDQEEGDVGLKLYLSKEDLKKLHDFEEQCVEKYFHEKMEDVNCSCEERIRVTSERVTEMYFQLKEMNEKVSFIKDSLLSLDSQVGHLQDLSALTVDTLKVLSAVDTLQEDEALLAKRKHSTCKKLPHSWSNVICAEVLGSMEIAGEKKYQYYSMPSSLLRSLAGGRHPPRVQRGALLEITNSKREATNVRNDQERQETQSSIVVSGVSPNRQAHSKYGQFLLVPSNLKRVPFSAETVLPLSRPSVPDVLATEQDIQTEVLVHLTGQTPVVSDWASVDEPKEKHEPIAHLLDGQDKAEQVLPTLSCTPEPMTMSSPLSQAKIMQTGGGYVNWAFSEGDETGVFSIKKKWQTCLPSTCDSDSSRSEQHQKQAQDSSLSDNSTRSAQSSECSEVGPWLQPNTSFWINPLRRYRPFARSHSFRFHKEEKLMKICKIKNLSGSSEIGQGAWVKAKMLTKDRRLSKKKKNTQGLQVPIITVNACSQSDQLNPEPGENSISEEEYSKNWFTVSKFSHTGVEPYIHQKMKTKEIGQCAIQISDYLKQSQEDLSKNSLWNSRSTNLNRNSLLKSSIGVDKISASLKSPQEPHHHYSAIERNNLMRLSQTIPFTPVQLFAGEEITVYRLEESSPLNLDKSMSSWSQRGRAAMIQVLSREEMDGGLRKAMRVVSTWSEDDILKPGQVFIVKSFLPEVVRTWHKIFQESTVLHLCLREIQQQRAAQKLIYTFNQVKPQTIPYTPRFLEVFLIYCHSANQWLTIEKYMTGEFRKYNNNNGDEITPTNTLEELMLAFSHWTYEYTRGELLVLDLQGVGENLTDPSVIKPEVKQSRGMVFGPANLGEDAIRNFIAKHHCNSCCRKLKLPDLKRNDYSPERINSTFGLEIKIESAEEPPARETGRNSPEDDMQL

[9] = molecular target: Serine/threonine-protein kinase PAK 6 (Homo sapiens) (UniProt Q9NQU5); assay: Selectivity interaction (Kinase panel (Z-LYTE Assay)) EUB0001632a PAK6; details: at 10 µM
Serine/threonine-protein kinase PAK 6 (Homo sapiens), sequence (Q9NQU5 whole entry, looked up): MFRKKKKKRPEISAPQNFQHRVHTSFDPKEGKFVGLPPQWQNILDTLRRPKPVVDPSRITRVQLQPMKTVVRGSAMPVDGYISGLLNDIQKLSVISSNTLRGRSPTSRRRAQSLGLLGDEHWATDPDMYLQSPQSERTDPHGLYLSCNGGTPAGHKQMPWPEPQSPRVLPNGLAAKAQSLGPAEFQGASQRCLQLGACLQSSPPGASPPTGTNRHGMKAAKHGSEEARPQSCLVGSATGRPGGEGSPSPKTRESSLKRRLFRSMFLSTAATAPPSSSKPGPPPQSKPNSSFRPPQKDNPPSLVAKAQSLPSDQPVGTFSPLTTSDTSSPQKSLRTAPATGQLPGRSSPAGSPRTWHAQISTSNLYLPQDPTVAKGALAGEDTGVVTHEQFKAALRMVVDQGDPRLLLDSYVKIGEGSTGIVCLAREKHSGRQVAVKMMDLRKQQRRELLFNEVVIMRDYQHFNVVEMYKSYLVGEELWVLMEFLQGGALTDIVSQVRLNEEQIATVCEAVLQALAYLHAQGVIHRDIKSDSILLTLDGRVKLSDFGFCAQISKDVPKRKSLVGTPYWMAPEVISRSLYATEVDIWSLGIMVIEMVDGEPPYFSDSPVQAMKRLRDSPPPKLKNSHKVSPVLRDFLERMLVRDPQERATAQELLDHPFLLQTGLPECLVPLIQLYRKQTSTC

Calcium/calmodulin-dependent protein kinase kinase 2 (Homo sapiens), sequence (Q96RR4 2-588 limits assumed): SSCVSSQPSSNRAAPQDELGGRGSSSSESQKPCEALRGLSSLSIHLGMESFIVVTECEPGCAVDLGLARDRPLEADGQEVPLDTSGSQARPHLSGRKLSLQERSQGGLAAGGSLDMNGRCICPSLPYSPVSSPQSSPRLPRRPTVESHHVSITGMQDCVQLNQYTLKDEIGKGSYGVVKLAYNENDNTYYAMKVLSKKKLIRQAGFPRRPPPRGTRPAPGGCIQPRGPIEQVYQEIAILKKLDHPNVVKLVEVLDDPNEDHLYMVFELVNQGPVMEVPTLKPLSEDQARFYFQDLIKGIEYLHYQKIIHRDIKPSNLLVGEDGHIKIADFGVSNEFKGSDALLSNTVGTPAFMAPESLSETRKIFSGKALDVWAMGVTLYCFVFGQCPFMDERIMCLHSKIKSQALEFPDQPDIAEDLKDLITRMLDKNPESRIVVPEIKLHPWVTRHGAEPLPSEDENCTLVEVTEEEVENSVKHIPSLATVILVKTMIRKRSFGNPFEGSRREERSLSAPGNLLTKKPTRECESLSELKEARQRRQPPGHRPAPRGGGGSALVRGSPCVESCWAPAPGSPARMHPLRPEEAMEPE

- dTM [1]: 1.1 K
SMILES: CN(C(=O)c1cnn2cccnc12)c1cc2c(cc1N1CCOCC1)C(=O)N(C[C@@H](F)C(C)(C)O)C2

SMILES: CN(C)CCOc1ccc(-c2nc(-c3ccncc3)c(-c3ccc4c(c3)CC/C4=N\O)[nH]2)cc1
- % of control [2]: 94%
- % of control [3]: 100%

SMILES: O[C@H]1CC[C@H](Nc2ncc3nc(Nc4c(F)cc(F)cc4F)n([C@H]4CCOC4)c3n2)CC1
- % of control [4]: 27%
- % of control [5]: 93%

SMILES: N#Cc1cccc(-c2c[nH]c3ncnc(N4CCOCC4)c23)c1
- % of control [6]: 33%

- % of inhibition [7]: 32%
SMILES: Cc1ccc(-c2ccc3c(ccc4sc5c(c43)NC[C@@H](C)NC5=O)n2)cn1

SMILES: Cc1cc([C@@H](C)Nc2ccccc2C(=O)O)c2nc(N3CCOCC3)cc(=O)n2c1 [AZD-6482]
- % of control [8]: 100%

- % of control [9]: -5.74%
SMILES: Cn1cc(-n2cnc3c(NCc4nc5cc(Cl)c(Cl)cc5[nH]4)nc(N4CCOCC4)nc32)cn1
